Values joined by “and” are separate entries in the source; they are usually repeats but may differ in a detail not shown here. Identical values can stand only once. Toxic doses and inconclusive results are not listed.
Tested on: P388 leukemia ip, CD2F1 mice, survival T/C
Assay: NCI In Vivo Anticancer Drug Screen. Data for tumor model P388 Leukemia (intraperitoneal) in CD2F1 (CDF1) mice
Settings: endpoint: median survival time, higher = longer survival
How it was run: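 Mice carrying the transplanted tumor received test compound or vehicle. Survival was recorded in each group, and the value is the treated-group measurement divided by that of the vehicle-treated control group.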

[1] = dose: 6.25 mg/kg/injection, schedule: Q01DX005 (ip), vehicle: saline with Tween-80
[2] = dose: 12.5 mg/kg/injection, schedule: Q01DX005 (ip), vehicle: saline with Tween-80
[3] = dose: 50.0 mg/kg/injection, schedule: Q01DX005 (ip), vehicle: Klucel (hydroxypropylcellulose) (HPC)
[4] = dose: 100.0 mg/kg/injection, schedule: Q01DX005 (ip), vehicle: Klucel (hydroxypropylcellulose) (HPC)
[5] = dose: 200.0 mg/kg/injection, schedule: Q01DX005 (ip), vehicle: Klucel (hydroxypropylcellulose) (HPC)
[6] = dose: 50.0 mg/kg/injection, schedule: Q01DX009 (ip), vehicle: saline
[7] = dose: 100.0 mg/kg/injection, schedule: Q01DX009 (ip), vehicle: saline
[8] = dose: 200.0 mg/kg/injection, schedule: Q01DX009 (ip), vehicle: saline
[9] = dose: 25.0 mg/kg/injection, schedule: Q01DX005 (ip), vehicle: Klucel (hydroxypropylcellulose) (HPC)
[10] = dose: 60.0 mg/kg/injection, schedule: Q01DX005 (ip), vehicle: saline with Tween-80
[11] = dose: 120.0 mg/kg/injection, schedule: Q01DX005 (ip), vehicle: saline with Tween-80
[12] = dose: 50.0 mg/kg/injection, schedule: Q01DX009 (ip), vehicle: saline with Tween-80
[13] = dose: 100.0 mg/kg/injection, schedule: Q01DX009 (ip), vehicle: saline with Tween-80
[14] = dose: 200.0 mg/kg/injection, schedule: Q01DX009 (ip), vehicle: saline with Tween-80
[15] = dose: 240.0 mg/kg/injection, schedule: Q01DX005 (ip), vehicle: saline with Tween-80
[16] = dose: 100.0 mg/kg/injection, schedule: Q04DX002 (ip), vehicle: saline with Tween-80
[17] = dose: 200.0 mg/kg/injection, schedule: Q04DX002 (ip), vehicle: saline with Tween-80
[18] = dose: 400.0 mg/kg/injection, schedule: Q04DX002 (ip), vehicle: saline with Tween-80

COc1cc2c(c(NC(C)CCCN=C(N)NC(N)=NC(C)C)c1)NCCC2 (configuration not stated)
T/C (dose: 3.12 mg/kg/injection, schedule: Q01DX005 (ip), vehicle: saline with Tween-80): 103 % of control
T/C [1]: 106 % of control
T/C [2]: 106 % of control

CC(O)CCC(=O)c1ccoc1 (configuration not stated)
T/C (dose: 1.87 mg/kg/injection, schedule: Q01DX005 (ip), vehicle: saline): 97 % of control
T/C (dose: 3.75 mg/kg/injection, schedule: Q01DX005 (ip), vehicle: saline): 100 % of control
T/C (dose: 7.5 mg/kg/injection, schedule: Q01DX005 (ip), vehicle: saline): 100 % of control and 96 % of control
T/C (dose: 15.0 mg/kg/injection, schedule: Q01DX005 (ip), vehicle: saline): 100 % of control and 93 % of control
T/C (dose: 30.0 mg/kg/injection, schedule: Q01DX005 (ip), vehicle: saline): 109 % of control

N/C(=N\C(=O)OCc1ccccc1)NC(=O)OCc1ccccc1
T/C (dose: 25.0 mg/kg/injection, schedule: Q01DX009 (ip), vehicle: Klucel (hydroxypropylcellulose) (HPC)): 99 % of control and 109 % of control
T/C (dose: 50.0 mg/kg/injection, schedule: Q01DX009 (ip), vehicle: Klucel (hydroxypropylcellulose) (HPC)): 104 % of control and 105 % of control
T/C (dose: 100.0 mg/kg/injection, schedule: Q01DX009 (ip), vehicle: Klucel (hydroxypropylcellulose) (HPC)): 103 % of control and 104 % of control
T/C (dose: 200.0 mg/kg/injection, schedule: Q01DX009 (ip), vehicle: Klucel (hydroxypropylcellulose) (HPC)): 99 % of control and 100 % of control
T/C (dose: 400.0 mg/kg/injection, schedule: Q01DX009 (ip), vehicle: Klucel (hydroxypropylcellulose) (HPC)): 99 % of control and 93 % of control

COc1cccc2c1C(=O)c1c(O)c3c(c(O)c1C2=O)C[C@@](O)(C(O)CO)C[C@@H]3OC1CC(NCc2ccccc2)C(O)C(C)O1 (some centres not stated)
T/C (dose: 0.39 mg/kg/injection, schedule: Q01DX009 (ip), vehicle: water): 158 % of control and 167 % of control
T/C (dose: 0.78 mg/kg/injection, schedule: Q01DX009 (ip), vehicle: water): 157 % of control and 162 % of control and 169 % of control
T/C (dose: 1.18 mg/kg/injection, schedule: Q04DX003 (ip), vehicle: water): 106 % of control
T/C (dose: 1.56 mg/kg/injection, schedule: Q01DX009 (ip), vehicle: water): 157 % of control and 190 % of control and 196 % of control
T/C (dose: 2.35 mg/kg/injection, schedule: Q04DX003 (ip), vehicle: water): 106 % of control
T/C (dose: 3.13 mg/kg/injection, schedule: Q01DX009 (ip), vehicle: water): 163 % of control and 176 % of control and 192 % of control
T/C (dose: 9.4 mg/kg/injection, schedule: Q04DX003 (ip), vehicle: water): 116 % of control

CC1=CC2OC3CC(OC(=O)/C=C/C=C/C(O)C(C)O)C(C)(C2(C)CC1)C31CO1 (configuration not stated)
T/C (dose: 0.16 mg/kg/injection, schedule: Q01DX009 (ip), vehicle: saline + alcohol): 109 % of control
T/C (dose: 0.31 mg/kg/injection, schedule: Q01DX009 (ip), vehicle: saline + alcohol): 113 % of control
T/C (dose: 0.62 mg/kg/injection, schedule: Q01DX009 (ip), vehicle: saline + alcohol): 109 % of control
T/C (dose: 1.25 mg/kg/injection, schedule: Q01DX009 (ip), vehicle: saline + alcohol): 109 % of control
T/C (dose: 2.5 mg/kg/injection, schedule: Q01DX009 (ip), vehicle: saline + alcohol): 120 % of control
T/C (dose: 5.0 mg/kg/injection, schedule: Q01DX009 (ip), vehicle: saline + alcohol): 123 % of control

COC1=CC(C)C2CC3OC(=O)CC4C(C)=C(OC)C(=O)C(C2(C)C1=O)C34C (configuration not stated)
T/C [3]: 95 % of control
T/C [4]: 101 % of control
T/C [5]: 101 % of control

CNC1=CC(=O)c2c(c3cc(OC(C)=O)ccc3n2C)C1=O
T/C [6]: 99 % of control
T/C [7]: 99 % of control
T/C [8]: 100 % of control

N/C(=N\N=C/c1ccccc1)NN(Cc1ccccc1)N=O
T/C [9]: 100 % of control
T/C [3]: 92 % of control
T/C [4]: 94 % of control

COc1ccc(OC)c(/C=C2/C(=O)ON=C2C)c1
T/C [10]: 114 % of control
T/C [11]: 111 % of control

CCOC(=O)/N=[N+](\[O-])c1cccc(Cl)c1
T/C (dose: 100.0 mg/kg/injection, schedule: Q01DX001 (ip), vehicle: saline with Tween-80): 110 % of control
T/C (dose: 200.0 mg/kg/injection, schedule: Q01DX001 (ip), vehicle: saline with Tween-80): 102 % of control

CC1=NN(C(=O)CC(=O)Nc2ccc(C(=O)O)cc2)C(=O)C1N=Nc1ccccc1C(=O)O (configuration not stated)
T/C (dose: 50.0 mg/kg/injection, schedule: Q01DX005 (ip), vehicle: saline with Tween-80): 110 % of control
T/C (dose: 100.0 mg/kg/injection, schedule: Q01DX005 (ip), vehicle: saline with Tween-80): 111 % of control
T/C (dose: 200.0 mg/kg/injection, schedule: Q01DX005 (ip), vehicle: saline with Tween-80): 110 % of control

COc1cc(OC)c(/C=C\c2ccnc3ccccc23)c(OC)c1
T/C [12]: 97 % of control
T/C [13]: 90 % of control
T/C [14]: 104 % of control

O=[N+]([O-])c1ccc2c(c1)nc(-c1ccccn1)n2CCc1ccncc1
T/C [9]: 95 % of control
T/C [3]: 94 % of control
T/C [4]: 92 % of control
T/C [5]: 91 % of control

COC(=O)Nc1nc2ccc(C3(c4ccc(F)cc4)OCCO3)cc2[nH]1
T/C (dose: 25.0 mg/kg/injection, schedule: Q01DX009 (oral), vehicle: saline): 103 % of control
T/C (dose: 50.0 mg/kg/injection, schedule: Q01DX009 (oral), vehicle: saline): 119 % of control
T/C (dose: 50.0 mg/kg/injection, schedule: Q04DX003 (ip), vehicle: saline): 168 % of control
T/C (dose: 60.0 mg/kg/injection, schedule: Q04DX003 (ip), vehicle: saline): 155 % of control and 192 % of control
T/C (dose: 70.0 mg/kg/injection, schedule: Q04DX003 (ip), vehicle: saline): 208 % of control

Cc1ccc(N2C(=O)C3CSCN3C2=O)cc1 (configuration not stated)
T/C [10]: 101 % of control
T/C [11]: 97 % of control
T/C [15]: 92 % of control

CCN1C(N)=NS(=O)(=O)c2ccccc21
T/C [16]: 104 % of control
T/C [17]: 104 % of control
T/C [18]: 106 % of control

C[Si](C)(c1ccc(Cl)cc1)c1ccc(Cl)cc1
T/C [6]: 97 % of control
T/C [7]: 100 % of control
T/C [8]: 99 % of control

C=C1C(=O)O[C@H]2C1[C@H](OC(=O)/C(C)=C\C)CC(=C)[C@@H]1C(=O)[C@H]3O[C@@]3(C)[C@@]12O (some centres not stated)
T/C (dose: 12.5 mg/kg/injection, schedule: Q01DX005 (ip), vehicle: saline + alcohol): 116 % of control and 117 % of control
T/C (dose: 25.0 mg/kg/injection, schedule: Q01DX005 (ip), vehicle: saline + alcohol): 110 % of control and 121 % of control

O=S(=O)(Nc1ccccc1Cl)c1ccc(F)cc1
T/C [10]: 96 % of control
T/C [11]: 104 % of control
T/C [15]: 100 % of control

CC1(C)COC(c2cc(Br)ccc2Br)=N1
T/C (dose: 12.5 mg/kg/injection, schedule: Q01DX009 (ip), vehicle: saline with Tween-80): 100 % of control
T/C (dose: 25.0 mg/kg/injection, schedule: Q01DX009 (ip), vehicle: saline with Tween-80): 102 % of control
T/C [12]: 97 % of control
T/C [13]: 97 % of control
T/C [14]: 101 % of control

c1cc(-c2ncc3ccncc3n2)ccn1
T/C (dose: 60.0 mg/kg/injection, schedule: Q01DX005 (ip), vehicle: Klucel (hydroxypropylcellulose) (HPC)): 109 % of control
T/C (dose: 120.0 mg/kg/injection, schedule: Q01DX005 (ip), vehicle: Klucel (hydroxypropylcellulose) (HPC)): 100 % of control
T/C (dose: 240.0 mg/kg/injection, schedule: Q01DX005 (ip), vehicle: Klucel (hydroxypropylcellulose) (HPC)): 98 % of control

CN1CCc2cc3c(cc2[C@H]1[C@@H]1OC(=O)c2c1ccc1c2OCO1)OCO3
T/C [1]: 101 % of control
T/C [2]: 97 % of control

CNC(=S)P(c1ccccc1)c1ccccc1
T/C [3]: 105 % of control
T/C [4]: 96 % of control
T/C [5]: 105 % of control

O=S(=O)(CS(=O)(=O)Oc1ccccc1)Oc1ccccc1
T/C [16]: 104 % of control
T/C [17]: 96 % of control
T/C [18]: 98 % of control

CCc1nc(N)nc(-c2nc(N)nc(CC)c2C)c1C
T/C (dose: 60.0 mg/kg/injection, schedule: Q01DX005 (ip), vehicle: saline): 106 % of control
T/C (dose: 120.0 mg/kg/injection, schedule: Q01DX005 (ip), vehicle: saline): 104 % of control
T/C (dose: 240.0 mg/kg/injection, schedule: Q01DX005 (ip), vehicle: saline): 108 % of control

From PubChem BioAssay AID330 (DTP/NCI, 2004)
